Experiments:
Sphaerotheca fuliginea = assay: In vivo preventive test on Sphaerotheca fuliginea (cucumber); conditions: preventive spray, 500 ppm of active ingredient, evaluated 7 days after inoculation
Protocol: In Vivo Preventive Test on Sphaerotheca fuliginea (Cucumber)
(§1) Solvent: 49 parts by weight of N,N-dimethylformamide
(§2) Emulsifier: 1 part by weight of alkylarylpolyglycolether
(§3) To produce a suitable preparation of active compound, 1 part by weight of active compound is mixed with the stated amounts of solvent and emulsifier, and the concentrate is diluted with water to the desired concentration.
To test for preventive activity, young plants are sprayed with the preparation of active compound at the stated rate of application. After the spray coating has dried on, the plants are inoculated with an aqueous spore suspension of Sphaerotheca fuliginea. The plants are then placed in a greenhouse at approximately 23° C. and a relative atmospheric humidity of approximately 70%.
The test is evaluated 7 days after the inoculation. 0% means an efficacy which corresponds to that of the untreated control, while an efficacy of 100% means that no disease is observed.

[1] = log P by HPLC on reversed-phase column (EEC Directive 79/831 Annex V.A8); type: physicochemical; conditions: 0.1% aqueous formic acid and acetonitrile, linear gradient 10% to 90% acetonitrile
Protocol: In table 1, the log P values were determined in accordance with EEC Directive 79/831 Annex V.A8 by HPLC (High Performance Liquid Chromatography) on a reversed-phase column (C 18), using the method described below: Temperature: 40° C.; Mobile phases: 0.1% aqueous formic acid and acetonitrile; linear gradient from 10% acetonitrile to 90% acetonitrile. Calibration was carried out using unbranched alkan-2-ones (comprising 3 to 16 carbon atoms) with known log P values (determination of the log P values by the retention times using linear interpolation between two successive alkanones). lambda-max-values were determined using UV-spectra from 200 nm to 400 nm and the peak values of the chromatographic signals.

Pyrenophora teres = assay: In vivo preventive test on Pyrenophora teres (barley); conditions: preventive spray, 500 ppm of active ingredient, evaluated 7-9 days after inoculation
Protocol: In Vivo Preventive Test on Pyrenophora teres (Barley)
Solvent: 49 parts by weight of N,N-dimethylacetamid
Emulsifier: 1 part by weight of alkylaryl polyglycol ether
as §3
To test for preventive activity, young plants are sprayed with the preparation of active compound at the stated rate of application. One day after this treatment, the plants are inoculated with an aqueous spore suspension of Pyrenophora teres. The plants remain for 48 hours in an incubation cabinet at 22° C. and a relative atmospheric humidity of 100%. Then the plants are placed in a greenhouse at a temperature of approximately 20° C. and a relative atmospheric humidity of approximately 80%.
The test is evaluated 7-9 days after the inoculation. 0% means an efficacy which corresponds to that of the untreated control while an efficacy of 100% means that no disease is observed.

Alternaria solani = assay: In vivo preventive test on Alternaria solani (tomato); conditions: preventive spray, 500 ppm of active ingredient, evaluated 7 days after inoculation
Protocol: In Vivo Preventive Test on Alternaria Solani (Tomato)
as §1, §2, §3
To test for preventive activity, young plants are sprayed with the preparation of active compound at the stated rate of application. One day after this treatment, the plants are inoculated with an aqueous spore suspension of Alternaria solani. The plants remain for one day in an incubation cabinet at approximately 22° C. and a relative atmospheric humidity of 100%. Then the plants are placed in an incubation cabinet at approximately 20° C. and a relative atmospheric humidity of 96%.
The test is evaluated 7 days after the inoculation. 0% means an efficacy which corresponds to that of the untreated control while an efficacy of 100% means that no disease is observed.

[2] = HPLC, reversed-phase C 18, 40° C.
[3] = HPLC on reversed-phase column (C 18), 40° C.

| SMILES | logP [1, 2] | logP [1, 3] | Efficacy (Sphaerotheca fuliginea) | Efficacy (Pyrenophora teres) | Efficacy (Alternaria solani) |
| --- | --- | --- | --- | --- | --- |
| Cn1nc(C(F)F)c(C(=O)NC(C)(C)c2ccc(Cl)cc2Cl)c1Cl [Example 35] | 3.89 |  | 86% |  |  |
| CC(c1ccccc1Cl)N(C)C(=O)c1c(C(F)F)nn(C)c1F (racemic) [Example 28] | 2.68 |  | 85% | 100% |  |
| Cn1nc(C(F)F)c(C(=O)NC2(c3ccc(Cl)cc3Cl)CC2)c1Cl [Example 41] | 3.89 |  |  |  | 80% |
| Cn1nc(C(F)F)c(C(=O)NC(C)(C)c2cc(Cl)ccc2Cl)c1Cl [Example 49] | 3.89 |  | 94% |  |  |
| CC(NC(=O)c1c(C(F)F)nn(C)c1Cl)c1ccccc1 (racemic) [Example 1] | 2.49 |  |  | 95% | 95% |
| Cn1nc(C(F)F)c(C(=O)NC(C)(C)c2cc(Cl)ccc2Cl)c1F [Example 52] | 3.89 |  | 80% |  |  |
| Cn1nc(C(F)F)c(C(=O)NC2(c3cc(Cl)ccc3Cl)CC2)c1F [Example 51] | 4.19 |  |  | 80% | 94% |
| CC(C)c1ccccc1CN(C(=S)c1c(C(F)F)nn(C)c1F)C1CCC1 [Example 75] | 4.63 |  | 100% | 100% |  |
| Cn1nc(C(F)F)c(C(=O)NC(c2ccc(Cl)cc2Cl)C(F)(F)F)c1Cl (stereo not drawn) [Example 32] | 3.89 |  | 95% |  |  |
| CC(NC(=O)c1c(C(F)F)nn(C)c1F)c1ccccc1 (racemic) [Example 2] | 2.33 |  |  | 94% | 93% |
| C=CCN(Cc1ccccc1CC)C(=O)c1c(C(F)F)nn(C)c1F [Example 16] | 3.36 |  |  | 100% | 80% |
| Cn1nc(C(F)F)c(C(=O)NCc2ccc(Cl)cc2Cl)c1F [Example 37] | 4.19 |  |  |  | 94% |
| Cn1nc(C(F)F)c(C(=O)N(CC#N)Cc2c(Cl)cccc2C(F)(F)F)c1F [Example 88] | 2.68 |  |  |  | 80% |
| CC(NC(=S)c1c(C(F)F)nn(C)c1Cl)c1ccccc1C(F)(F)F (stereo not drawn) [Example 85] | 3.55 |  |  | 100% | 95% |
| Cn1nc(C(F)F)c(C(=O)NCc2ccccc2C(F)(F)F)c1Cl [Example 83] | 2.96 |  |  |  | 90% |
| Cn1nc(C(F)F)c(C(=O)NC(C)(C)c2ccccc2Cl)c1Cl [Example 22] | 3.15 |  | 80% |  |  |
| CN(Cc1c(Cl)cccc1Cl)C(=O)c1c(C(F)F)nn(C)c1F [Example 62] | 2.82 |  |  | 100% |  |
| Cc1cccc(C)c1CN(C)C(=O)c1c(C(F)F)nn(C)c1F [Example 6] | 2.84 |  |  | 78% |  |
| CC(c1ccccc1Cl)N(C)C(=O)c1c(C(F)F)nn(C)c1Cl (racemic) [Example 27] | 2.84 |  |  | 100% | 80% |
| Cn1nc(C(F)F)c(C(=O)NC(c2ccccc2Cl)C(F)(F)F)c1F (racemic) [Example 23] | 3.21 |  |  |  | 89% |
| Cc1cccc(C)c1CN(C)C(=O)c1c(C(F)F)nn(C)c1Cl [Example 5] | 3.02 |  |  | 89% |  |
| Cn1nc(C(F)F)c(C(=O)NCc2cc(Cl)ccc2Cl)c1F [Example 54] | 4.19 |  |  |  | 89% |
| Cn1nc(C(F)F)c(C(=O)NCc2ccccc2C(F)(F)F)c1F [Example 81] | 2.76 |  |  |  | 90% |
| CON(C(=O)c1c(C(F)F)nn(C)c1Cl)C(C)c1ccc(Cl)cc1Cl (stereo not drawn) [Example 46] | 3.81 |  |  | 100% | 100% |

The next lines start with results.

| logP [1, 2] | logP [1, 3] | SMILES | Efficacy (Sphaerotheca fuliginea) | Efficacy (Pyrenophora teres) | Efficacy (Alternaria solani) |
| --- | --- | --- | --- | --- | --- |
| 2.93 |  | CN(Cc1c(Cl)cccc1C(F)(F)F)C(=O)c1c(C(F)F)nn(C)c1F [Example 89] |  | 100% | 95% |
|  | 3.21 | Cn1nc(C(F)F)c(C(=O)NCc2ccc(-c3ccccc3)cc2)c1F [Example 170] |  | 95% | 94% |
|  | 2.55 | Cn1nc(C(F)F)c(C(=O)NCc2ccc(Cl)cc2)c1F [Example 127] |  |  | 90% |
|  | 3.11 | Cn1nc(C(F)F)c(C(=O)NCc2ccccc2SC(F)(F)F)c1F [Example 107] |  | 100% | 80% |
|  | 3.19 | Cn1nc(C(F)F)c(C(=O)N(Cc2cccc(Oc3ccccc3)c2)C2COC2)c1Cl [Example 147] |  |  | 70% |
|  | 2.73 | Cn1nc(C(F)F)c(C(=O)NC2CCc3ccccc32)c1Cl (stereo not drawn) [Example 137] |  |  | 89% |
|  | 3.81 | CN(Cc1ccc(Oc2ccc(Cl)cc2)cc1)C(=O)c1c(C(F)F)nn(C)c1F [Example 158] |  | 100% | 95% |
|  | 3.25 | Cn1nc(C(F)F)c(C(=O)NCc2ccc3c(c2)CCCC3)c1F [Example 110] |  | 80% | 94% |
|  | 3.23 | Cn1nc(C(F)F)c(C(=O)NCc2cccc(Oc3ccccc3)c2)c1F [Example 145] |  |  | 90% |
|  | 3.09 | Cn1nc(C(F)F)c(C(=O)NCc2cc(Cl)cc(Cl)c2)c1F [Example 115] |  | 90% | 94% |
|  | 3.25 | Cn1nc(C(F)F)c(C(=O)NCc2ccccc2Oc2ccccc2)c1F [Example 144] |  |  | 89% |
|  | 3.76 | CC(c1ccc(Oc2ccccc2)cc1)N(C)C(=O)c1c(C(F)F)nn(C)c1Cl (racemic) [Example 153] |  | 80% | 90% |
|  | 3.19 | Cn1nc(C(F)F)c(C(=O)NCc2cccc(-c3ccccc3)c2)c1F [Example 166] |  | 80% | 78% |
|  | 3.23 | Cn1nc(C(F)F)c(C(=O)NCc2cc(Cl)cc(Cl)c2)c1Cl [Example 113] |  | 80% | 90% |
|  | 2.71 | CN(Cc1ccccc1Br)C(=O)c1c(C(F)F)nn(C)c1F [Example 105] |  | 94% | 95% |
|  | 3.23 | Cn1nc(C(F)F)c(C(=O)NCc2ccc(Oc3ccccc3)cc2)c1F [Example 152] |  | 95% | 89% |
|  | 3.33 | CN(Cc1ccc(Oc2ccccc2)cc1)C(=O)c1c(C(F)F)nn(C)c1F [Example 156] |  | 90% | 89% |
|  | 3.06 | Cn1nc(C(F)F)c(C(=O)N(Cc2cccc(Oc3ccccc3)c2)C2COC2)c1F [Example 148] |  | 95% | 80% |
|  | 2.76 | Cn1nc(C(F)F)c(C(=O)NCc2ncc(C(F)(F)F)cc2Cl)c1F [Example 176] |  |  | 70% |
|  | 3.31 | CN(Cc1cccc(Oc2ccccc2)c1)C(=O)c1c(C(F)F)nn(C)c1F [Example 150] |  | 100% | 70% |
|  | 3.46 | CN(Cc1cccc(Oc2ccccc2)c1)C(=O)c1c(C(F)F)nn(C)c1Cl [Example 149] |  | 70% |  |
|  | 3.62 | CC(NC(=O)c1c(C(F)F)nn(C)c1Cl)c1ccc(-c2ccccc2)cc1 (racemic) [Example 167] |  | 90% | 95% |
|  | 3.23 | Cn1nc(C(F)F)c(C(=O)NCc2ccc(OCc3ccccc3)cc2)c1F [Example 161] |  | 90% | 94% |
|  | 1.84 | CN(Cc1cc(Cl)ccn1)C(=O)c1c(C(F)F)nn(C)c1F [Example 174] |  | 75% |  |
|  | 2.57 | Cn1nc(C(F)F)c(C(=O)NC2CCc3ccccc32)c1F (stereo not drawn) [Example 138] |  |  | 94% |
|  | 3.72 | Cn1nc(C(F)F)c(C(=O)NC2(c3ccc(C(F)(F)F)cc3)CCCC2)c1F [Example 121] |  | 94% | 70% |
